According to ChEMBL document CHEMBL1201862, “PubChem BioAssay data set” (2004):
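These data come from cells grown in 96-well plates and exposed to compound for 48 hours at five concentrations. At the GI50, growth is halved.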 Activity calls are given as the source filed them. Cut-off read from the data, not from the text of the source: active = GI50 up to about 1.1 µM and inactive = higher.

Key:
Assay in all cases: growth of human tumour cells (NCI), 48 h
IGROV-1 = system: IGROV-1
NCI-H23 = system: NCI-H23
HT-29 = system: HT-29
RPMI-8226 = system: RPMI-8226
HOP-62 = system: HOP-62
SNB-19 = system: SNB-19
COLO 205 = system: COLO 205
MDA-MB-231 = system: MDA-MB-231
KM12 = system: KM12
K562 = system: K562
A549 = system: A549
786-0 = system: 786-0
SR = system: SR
NCI-H522 = system: NCI-H522
DU-145 = system: DU-145
ACHN = system: ACHN
SK-MEL-28 = system: SK-MEL-28
M14 = system: M14
UACC-62 = system: UACC-62
HL-60 = system: HL-60

Measured: GI50

O=C1c2ccccc2C(=O)N1C1(C(=O)NC2(C(=O)O)CCCC2)CCCC1
inactive: IGROV-1 > 100 µM | NCI-H23 > 100 µM | HT-29 > 100 µM | RPMI-8226 > 100 µM | HOP-62 > 100 µM | SNB-19 > 100 µM | COLO 205 > 100 µM | MDA-MB-231 > 100 µM | KM12 > 100 µM | K562 > 100 µM | A549 > 100 µM | 786-0 > 100 µM | SR > 100 µM | NCI-H522 > 100 µM | DU-145 > 100 µM | ACHN > 100 µM | SK-MEL-28 > 100 µM | M14 > 100 µM | UACC-62 > 100 µM

CN(C(=O)C1=CCC2(CC1)OCCO2)c1ccccc1OS(=O)(=O)C(F)(F)F
inactive: NCI-H23 > 100 µM | RPMI-8226 > 100 µM | HOP-62 27.4 µM | SNB-19 > 100 µM | COLO 205 > 100 µM | MDA-MB-231 > 100 µM | KM12 25.3 µM | K562 > 100 µM | A549 > 100 µM | 786-0 24.3 µM | SR > 100 µM | HL-60 > 100 µM | DU-145 > 100 µM | ACHN > 100 µM | SK-MEL-28 > 100 µM | M14 > 100 µM | UACC-62 > 100 µM

O=C(O)c1nc2ccc(C(F)(F)F)cc2nc1Nc1ccc(F)cc1
inactive: IGROV-1 20.7 µM | NCI-H23 15.2 µM | HT-29 28.1 µM | HOP-62 17.1 µM | SNB-19 > 10 µM | COLO 205 19.5 µM | MDA-MB-231 25.1 µM | KM12 18.6 µM | K562 11.2 µM | 786-0 20 µM | SR 12.1 µM | NCI-H522 6.07 µM | HL-60 12.6 µM | DU-145 21.2 µM | ACHN 21.4 µM | SK-MEL-28 37.6 µM | UACC-62 11.7 µM

O=c1cc(CC(O)(C(F)(F)Cl)C(F)(F)Cl)[nH]n1-c1ccccc1
inactive: IGROV-1 > 100 µM | NCI-H23 > 100 µM | HT-29 > 100 µM | RPMI-8226 > 100 µM | HOP-62 > 100 µM | SNB-19 > 100 µM | COLO 205 > 100 µM | MDA-MB-231 > 100 µM | KM12 > 100 µM | K562 92.3 µM | A549 > 100 µM | 786-0 > 100 µM | SR > 100 µM | HL-60 > 100 µM | DU-145 > 100 µM | ACHN > 100 µM | SK-MEL-28 > 100 µM | M14 > 100 µM | UACC-62 > 100 µM

NC1(CCNC(=O)c2ccccc2)CCN(C(=O)c2ccccc2)CC1
inactive: IGROV-1 > 100 µM | NCI-H23 > 100 µM | HT-29 > 100 µM | RPMI-8226 > 100 µM | SNB-19 > 100 µM | COLO 205 41.7 µM | MDA-MB-231 > 10 µM | KM12 > 100 µM | K562 > 100 µM | A549 > 100 µM | 786-0 > 100 µM | SR > 100 µM | NCI-H522 3.67 µM | DU-145 > 100 µM | ACHN > 100 µM | M14 > 100 µM | UACC-62 > 100 µM

N#Cc1nc(C2CC2)oc1N
inactive: IGROV-1 > 100 µM | NCI-H23 > 100 µM | HT-29 > 100 µM | RPMI-8226 > 100 µM | HOP-62 > 100 µM | SNB-19 > 100 µM | COLO 205 > 100 µM | MDA-MB-231 > 100 µM | KM12 25.7 µM | K562 > 100 µM | A549 > 100 µM | 786-0 > 100 µM | SR > 100 µM | NCI-H522 25.2 µM | DU-145 > 100 µM | ACHN > 100 µM | SK-MEL-28 > 100 µM | M14 > 100 µM | UACC-62 > 100 µM

COc1cc(/C=C/C(=O)OC[C@H](Br)[C@H](OC(C)=O)c2ccc3c(c2)OCO3)cc(OC)c1OC
inactive: IGROV-1 > 100 µM | NCI-H23 > 100 µM | HT-29 > 100 µM | RPMI-8226 61.1 µM | HOP-62 > 100 µM | SNB-19 > 100 µM | COLO 205 > 100 µM | MDA-MB-231 > 100 µM | KM12 > 100 µM | K562 > 100 µM | A549 92.7 µM | 786-0 > 100 µM | SR 48.8 µM | NCI-H522 > 100 µM | DU-145 > 100 µM | ACHN > 100 µM | SK-MEL-28 > 100 µM | M14 > 100 µM | UACC-62 > 100 µM

COC(=O)c1cc(=O)n(-c2ccc3nn(C)nc3c2)cc1C(=O)OC
inactive: IGROV-1 > 100 µM | NCI-H23 > 100 µM | HT-29 > 100 µM | RPMI-8226 > 100 µM | HOP-62 > 100 µM | SNB-19 > 100 µM | COLO 205 > 100 µM | MDA-MB-231 > 100 µM | KM12 > 100 µM | K562 > 100 µM | A549 > 100 µM | 786-0 > 100 µM | SR > 100 µM | NCI-H522 > 100 µM | DU-145 > 100 µM | ACHN > 100 µM | SK-MEL-28 > 100 µM | M14 > 100 µM | UACC-62 > 100 µM

Nc1ccc(-c2nc3ccc(F)cc3s2)cc1
inactive: NCI-H23 31.3 µM | HT-29 38.2 µM | RPMI-8226 18.6 µM | HOP-62 29.5 µM | SNB-19 32.8 µM | COLO 205 17.9 µM | MDA-MB-231 25.3 µM | KM12 25.2 µM | K562 43.7 µM | A549 28.1 µM | 786-0 35.4 µM | SR 77.3 µM | NCI-H522 30.8 µM | DU-145 23.7 µM | ACHN 21 µM | SK-MEL-28 60.1 µM | M14 36.4 µM | UACC-62 16.6 µM

CCC(=O)OC1=C(c2ccccc2)Sc2ccc(Cl)cc2-n2cccc21
inactive: IGROV-1 > 10 µM | NCI-H23 8.2 µM | HT-29 3.78 µM | RPMI-8226 4.45 µM | HOP-62 > 10 µM | COLO 205 > 10 µM | MDA-MB-231 4.47 µM | KM12 9.04 µM | K562 5.75 µM | A549 > 10 µM | 786-0 > 10 µM | SR 7.52 µM | HL-60 3.95 µM | DU-145 > 10 µM | SK-MEL-28 > 10 µM | M14 > 10 µM | UACC-62 8.73 µM

COC(=O)c1ccc2[nH]c3c(c2c1)CC(=O)Nc1ccccc1-3
inactive: IGROV-1 44.2 µM | HT-29 > 100 µM | RPMI-8226 > 100 µM | HOP-62 24.3 µM | SNB-19 > 100 µM | COLO 205 > 100 µM | MDA-MB-231 12.4 µM | KM12 > 100 µM | K562 27.4 µM | A549 > 100 µM | 786-0 > 100 µM | SR 7.28 µM | NCI-H522 > 100 µM | DU-145 45.7 µM | ACHN > 100 µM | SK-MEL-28 > 100 µM | M14 35.8 µM | UACC-62 > 100 µM
